Measured values as given in patent US20080031950A1, “Novel anelgesic combination” (NECTID INC., priority 2007, published 2008).
Counter-ions that a name gives are not always drawn.

Tested on: patients suffering from Chronic non-cancer pain (CNCP)
Assay: Controlled human clinical trial, pain scored by visual analogue scale (VAS)
Assay type: in vivo
Conditions: mean ± SD, N = 10
Procedure: A typical study determined the efficacy of tramadol and […] as monotherapy and a combination of naproxen and a slow release tramadol for the treatment of pain and pain related conditions
• Tramadol hydrochloride: Generic Tramadol Hydrochloride tablets 50 mg, • Naproxen: Generic Neproxen tablets 250 mg • Slow Release Tramadol Hydrochloride: a) Example 1, b) Ultram ER 100 mg
• Treatment Drugs per day per patient • 1. Treatment A; Tramadol hydrochloride 100 mg • 2. Treatment B: Naproxen 250 mg • 3. Treatment C: Example 1 • 4. Treatment D: Ultram ER 100 mg+Naproxen 250 mg • 5. Treatment E: Example 2
The administered dosage comprised either tramadol hydrochloride (100 mg) or naproxen 250 mg or a combination of naproxen (250 mg) and slow release tramadol hydrochloride (100 mg) selected from Treatments D or a combination of naproxen 250 mg and a slow release tramadol 100 mg (Treatment C) was administered once a day to the patients in a long-term clinical trial.
40 patients were used in a clinical trial were suffering from Chronic non-cancer pain (CNCP), defined as pain for longer than 6 months, including neuropathic pain, osteoarthritis, rheumatoid arthritis, fibromyalgia, and back and musculoskeletal pain were included in the clinical trial. No effort was made to segregate the patients based on the type of pain nor did we evaluate the extent of pain relief on the basis of pain type.
Those patients with migraines, dental pain, abdominal pains (from chronic pancreatitis, kidney stones, etc.) and ischemic pain from vascular disease were excluded because they are usually not classified as CNCP. Patients with history of addiction (alcohol or drugs) were excluded from the trials
Randomization was performed with computer-generated random numbers in blocks of 10. Randomization codes of the monotherapy or combination therapy treatments were placed in sequentially numbered, opaque, sealed envelopes in the biopsy center.
Pain was assessed using a visual analogue scale (VAS) graded from 0-100 mm. Pain scoring was performed every three hours after drug administration for a total of 48 hours.
The patients were taught with a standard method by the physician how to use a VAS scoring from 0 to 100 mm to grade the intensity of pain experienced during the treatment. On that scale, the left endpoint, 0, was defined as no pain and the right endpoint 100, as the worst pain the patient could imagine. There were no further marks on the line. The intensity of pain was indicated by the distance in millimeters from the left end. Patients were asked to grade the pain intensity immediately after the administration of drugs and every three hour after for 24 hours by drawing a vertical line over each VAS line. The doctors who prescribed the medicines obtained all the VAS forms for that specific patient.
Data are expressed as means±SD. Differences in VAS were analyzed with use of the unpaired Student t test and differences in pain score reductions between the two groups were analyzed with use of the Mann-Whitney U test for the median difference. Similar statistical tests were used for between group comparisons of other outcome variables as appropriate. A two tailed P value of less than. […] SAS software was used for the statistical analysis.
We considered that a clinically significant benefit of using […] and slow release tramadol would be a reduction in the pain score (VAS) of at least 15% compared to the monotherapy with either tramadol hydrochloride or naproxen or placebo. Alternatively, the dose reduction of at least 15% of either NSAID or tramadol when used as combination over the monotherapy as significant benefit

[1] = VAS time 0 hours, scale 0-100 mm

## COc1cccc([C@@]2(O)CCCC[C@@H]2CN(C)C)c1 (racemic) [Treatment A, (±) cis-2-[(dimethylamino)methyl]-1-(3-methoxyphenyl)cyclo-hexanol hydrochloride]
[1]
  Pain scored by VAS: 32.4 ± 21.2 mm
VAS time 3 hours
  Pain scored by VAS: 23.1 ± 20.1 mm
VAS time 6 hours
  Pain scored by VAS: 18.8 ± 20.6 mm
VAS time 9 hours
  Pain scored by VAS: 14.9 ± 17.2 mm
VAS time 12 hours
  Pain scored by VAS: 13.1 ± 21.2 mm
VAS time 15 hours
  Pain scored by VAS: 13.9 ± 19.2 mm
VAS time 18 hours
  Pain scored by VAS: 15.4 ± 21.3 mm
VAS time 21 hours
  Pain scored by VAS: 14.5 ± 19.2 mm
VAS time 24 hours
  Pain scored by VAS: 13.9 ± 19.2 mm

## COc1ccc2cc([C@H](C)C(=O)O)ccc2c1 [Treatment B, (+)-(S)-2-(6-methoxynaphthalen-2-yl)propanoic acid]
[1]
  Pain scored by VAS: 33.9 ± 19.1 mm
VAS time 3 hours
  Pain scored by VAS: 18.5 ± 19.1 mm
VAS time 6 hours
  Pain scored by VAS: 13.9 ± 21.1 mm
VAS time 9 hours
  Pain scored by VAS: 13.8 ± 20.3 mm
VAS time 12 hours
  Pain scored by VAS: 14.6 ± 18.6 mm
VAS time 15 hours
  Pain scored by VAS: 17.1 ± 21.5 mm
VAS time 18 hours
  Pain scored by VAS: 18.9 ± 19.7 mm
VAS time 21 hours
  Pain scored by VAS: 20.1 ± 18.3 mm
VAS time 24 hours
  Pain scored by VAS: 24.8 ± 20.9 mm
